Assay results: PubChem BioAssay (NCI)
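Five compound concentrations were applied to cells in 96-well plates for 48 hours; endpoints were derived by simple linear interpolation of the resulting dose-response curve. TGI: concentration producing complete growth inhibition.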

Assays:
Experiment in all cases: NCI anticancer screen, dose series, 48 h
[1] = tested on: UO-31 renal
[2] = tested on: CCRF-CEM leukemia
[3] = tested on: LOX IMVI melanoma
[4] = tested on: SK-MEL-2 melanoma
[5] = tested on: TK-10 renal
[6] = tested on: COLO 205 colon
[7] = tested on: M19-MEL melanoma
[8] = tested on: SF-539 CNS
[9] = tested on: UACC-62 melanoma
[10] = tested on: NCI-H460 lung
[11] = tested on: OVCAR-8 ovarian
[12] = tested on: RXF-631 renal
[13] = tested on: NCI-H522 lung
[14] = tested on: KM12 colon
[15] = tested on: SR leukemia
[16] = tested on: OVCAR-4 ovarian
[17] = tested on: HCT-116 colon
[18] = tested on: HCT-15 colon
[19] = tested on: OVCAR-3 ovarian
[20] = tested on: DMS 273 small cell lung
[21] = tested on: SK-MEL-5 melanoma
[22] = tested on: IGROV1 ovarian
[23] = tested on: KM20L2 colon
[24] = tested on: SNB-75 CNS
[25] = tested on: HT29 colon
[26] = tested on: HL-60(TB) leukemia
[27] = tested on: SNB-19 CNS
[28] = tested on: EKVX NSCLC
[29] = tested on: K-562 leukemia
[30] = tested on: A498 renal
[31] = tested on: M14 melanoma
[32] = tested on: 786-0 renal
[33] = tested on: SNB-78 CNS
[34] = tested on: NCI-H226 lung
[35] = tested on: SK-OV-3 ovarian
[36] = tested on: OVCAR-5 ovarian
[37] = tested on: SF-295 CNS
[38] = tested on: UACC-257 melanoma
[39] = tested on: ACHN renal
[40] = tested on: HCC-2998 colon
[41] = tested on: HOP-62 NSCLC
[42] = tested on: SF-268 CNS
[43] = tested on: MALME-3M melanoma
[44] = tested on: XF 498 CNS
[45] = tested on: SW-620 colon
[46] = tested on: A549 NSCLC
[47] = tested on: U251 CNS
[48] = tested on: SN12C renal
[49] = tested on: CAKI-1 renal
[50] = tested on: RXF 393 renal
[51] = tested on: DMS 114 small cell lung
[52] = tested on: LXFL 529 NSCLC
[53] = tested on: NCI-H23 lung
[54] = tested on: DLD-1 colon
[55] = tested on: MOLT-4 leukemia

Cc1[nH]c2ccccc2c1C1Cc2ccccc2N1C(=O)/C=C/C(=O)O (stereo not given) gave a TGI [1] of over 100 µM, a TGI [2] of over 100 µM and a TGI [3] of over 100 µM. For the same compound, the TGI [4] was over 100 µM, the TGI [5] was over 100 µM and the TGI [6] was over 100 µM. It also gave a TGI [7] of over 100 µM, a TGI [8] of over 100 µM and a TGI [9] of over 100 µM. It also gave a TGI [10] of 61.3 µM, a TGI [11] of over 100 µM and a TGI [12] of 41.3 µM. For the same compound, the TGI [13] was over 100 µM, the TGI [14] was over 100 µM and the TGI [15] was over 100 µM. The TGI [16] was over 100 µM, the TGI [17] was over 100 µM and the TGI [18] was 33 µM. For the same compound, the TGI [19] was over 100 µM, the TGI [20] was over 100 µM and the TGI [21] was over 100 µM. For the same compound, the TGI [22] was over 100 µM, the TGI [23] was over 100 µM and the TGI [24] was over 100 µM. For the same compound, the TGI [25] was over 100 µM, the TGI [26] was over 100 µM and the TGI [27] was over 100 µM. It also gave a TGI [28] of over 100 µM, a TGI [29] of over 100 µM and a TGI [30] of over 100 µM. It also gave a TGI [31] of over 100 µM, a TGI [32] of over 100 µM and a TGI [33] of over 100 µM. The TGI [34] was over 100 µM, the TGI [35] was over 100 µM and the TGI [36] was over 100 µM. For the same compound, the TGI [37] was over 100 µM, the TGI [38] was over 100 µM and the TGI [39] was over 100 µM. For the same compound, the TGI [40] was over 100 µM, the TGI [41] was over 100 µM and the TGI [42] was over 100 µM. The TGI [43] was over 100 µM, the TGI [44] was over 100 µM and the TGI [45] was over 100 µM. It also gave a TGI [46] of over 100 µM, a TGI [47] of over 100 µM and a TGI [48] of over 100 µM. It also gave a TGI [49] of over 100 µM, a TGI [50] of over 100 µM and a TGI [51] of over 100 µM. For the same compound, the TGI [52] was over 100 µM, the TGI [53] was over 100 µM and the TGI [54] was over 100 µM. It also gave a TGI [55] of over 100 µM.
